pIC50: −log10 of the molar value.
Biological target: T1, Prostacyclin Receptors (IP Receptors) of Human Thrombocyte Membranes (Homo sapiens, UniProt P43119)
T1 construct: Thrombocyte membranes are obtained by centrifuging 50 ml of human blood; tissue Maco Pharma, Langen (buffy coats); host or cells: human thrombocyte (platelet) membranes prepared from human blood
Experiment: Binding to prostacyclin receptors (IP receptors) of human thrombocyte membranes, 3H-Iloprost displacement
Conditions: 3 nM 3H-Iloprost, 60 min, room temperature
Description: B-1. Studies of Binding to Prostacyclin Receptors (IP Receptors) of Human Thrombocyte Membranes
Thrombocyte membranes are obtained by centrifuging 50 ml of human blood (Buffy coats with CDP Stabilizer, from Maco Pharma, Langen) for 20 min at 160×g. Remove the supernatant (platelet-rich plasma, PRP) and then centrifuge again at 2000×g for 10 min at room temperature. Resuspend the sediment in 50 mM tris(hydroxymethyl)aminomethane, which has been adjusted to a pH of 7.4 with 1 N hydrochloric acid, and store at −20° C. overnight. On the next day, centrifuge the suspension at 80 000×g and 4° C. for 30 min. Discard the supernatant. […]
For the binding test, incubate 3 nM ^3H-Iloprost (592 GBq/mmol, from AmershamBioscience) for 60 min with 300-1000 μg/ml of human thrombocyte membranes per charge (max. 0.2 ml) in the presence of the test substances at room temperature. […] After adding Ultima Gold Scintillator, quantify the radioactivity bound to the membranes using a scintillation counter. The nonspecific binding is defined as radioactivity in the presence of 1 μM Iloprost (from Cayman Chemical, Ann Arbor) and is as a rule <25% of the bound total radioactivity. The binding data (IC50 values) are determined using the program GraphPad Prism Version 3.02.

T1 sequence (P43119 whole entry): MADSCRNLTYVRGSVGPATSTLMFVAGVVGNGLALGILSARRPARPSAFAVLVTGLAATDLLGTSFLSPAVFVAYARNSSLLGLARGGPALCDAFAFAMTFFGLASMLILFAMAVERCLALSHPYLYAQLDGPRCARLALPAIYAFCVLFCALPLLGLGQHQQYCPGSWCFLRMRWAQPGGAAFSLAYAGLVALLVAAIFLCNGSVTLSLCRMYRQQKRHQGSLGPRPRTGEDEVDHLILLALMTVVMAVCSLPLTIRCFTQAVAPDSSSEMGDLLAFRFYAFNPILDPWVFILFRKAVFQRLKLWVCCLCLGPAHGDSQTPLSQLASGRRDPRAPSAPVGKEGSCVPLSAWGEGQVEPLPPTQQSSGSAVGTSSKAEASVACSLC

pIC50	SMILES
6.20	COc1ccc(-c2c(-c3ccccc3)cn3ncnc(NCCCCCC(=O)O)c23)cc1 [Example 3]
6.65	COc1ccc(-c2c(-c3ccccc3)cn3ncnc(O[C@H](C)CCCCC(=O)O)c23)cc1 [Example 4, (6R)-6-{[5-(4-methoxyphenyl)-6-phenylpyrrolo[2,1-f][1,2,4]triazin-4-yl]oxy}heptanoic acid]

— US20110028479A1, “SUBSTITUTED PYRROLOTRIAZINES AND THEIR USE” (BAYER SCHERING PHARMA AKTIENGESELLSCHAFT, priority 2007, published 2011)
